The record followed here is PMC6949291, “An evolutionarily conserved iron-sulfur cluster underlies redox sensory function of the Chloroplast Sensor Kinase” (Communications Biology, 2020).

The target of one data set is T1, Syn-CSK (Hik2) (Synechocystis sp. PCC 6803, UniProt P73276).
T1 construct: octamer
In words: autophosphorylation, autoradiography. The class given is biochemical. Conditions: 0.5 mM, MgCl2, pH 8, 22 °C, reductant of the [3Fe-4S] cluster, inhibitor of autokinase activity.

Data set [1] concerns the molecule itself. In words: SEC; Superdex 200 10/300GL Increase; air-oxidized protein eluted with 20 mM Tris-HCl pH 8 and 10 mM NaCl (legend; methods say 20 mM NaCl), or the same buffer with 2 mM sodium dithionite; mass from a calibration curve. On the technique in general: SEC sorts molecules by how far they enter the pores of the column.

As to `Cc1c(C)c(O)c(C)c(C)c1O` [duroquinol], the “autophosphorylation with [γ-^32P]ATP, autoradiography” value at Syn-CSK (Hik2) is listed as “Treatment with reducing agents: dithionite, duroquinol, or decylPQH2 inhibit Syn-CSK”.

B1: Synechocystis sp. PCC 6803 Histidine kinase 2 (Hik2), reconstituted holoprotein (enzyme, UniProt P73276 1-434, looked up)
chain: MAGSISSMYSPSAGLISLCQSQVRLLQQGLRVDWCGVYLNQEETEQGLVPLVVSHGSTLVESESYGLISLPQGEVSPPMDDFSLPAVPVGVGQLSRRSRLEPPPFDADKRLVLPLVYGEEMVGLLVIHRSQGQWHGEEMMQLEAIAKSLAVACLLDQQQDWYRQAWEEQNQQYQWERQHWADLLHQLRNPLTALKTFSKLLLKRWHGDNKSQQVVEGIVRQGEHLQELLQSFEASQSQGPEAVPLLSSSPVTTIQVLPPADRVETMPLANFSLGEVLPPILLAHQAIAAERNITLTAQIALIDTVVMANRLALREVVNNLLDNGIKYTPNGGLVEVSLALEKVSSSGMDWATLAIADTGYGIPPEDQQKIFERNYRGVQGRGSINGTGLGLAIVADLVAQMGGKITVTSPNGLSRDPDQPGSTFTLWLRSGEQV
notes: Histidine kinase 2 (Hik2, slr1147), the cyanobacterial CSK homologue, Synechocystis sp; Each monomer carries one [3Fe-4S] cluster (holoprotein after reconstitution with iron and sulfide); also called Syn-CSK; holoSyn-CSK
By stoichiometry N is commonly meant the number of molecules, sites or subunits per partner or assembly. Turning to B1, the “stoichiometry N” value in data set [1] worked out at 8.
